Data from patent US20230046617A1, “METHOD FOR PROMOTING EXPANSION OF HEMATOPOIETIC STEM CELLS AND AGENT FOR USE IN THE METHOD” (FARON PHARMACEUTICALS OY, priority 2020, published 2023).

What was measured:
[1] = system: human CD45+ cells engraftment in the BM of NBSGW mice; test: In vivo engraftment of sorted human BM cells in non-irradiated NBSGW mice; conditions: VAP-1+ cells in the transfer pool; inhibitor 10 mg/kg i.p. three times a week for six weeks; cut-off 0.1% human CD45+
Description: Human fresh frozen BM CD34+ cells (LONZA) were thawed and stained with APC conjugated mouse anti-Lineage cocktail, PE-Cy7-conjugated anti-CD34 and FITC-conjugated monoclonal antibodies 1B2, TK8-14, and JG-2 against different epitopes of human VAP-1. For batch cell sorting of VAP-1^+/lo and VAP-1^− cells we used a Sony SH800 cell sorter with class A2 Level II biosafety cabinet using 130 μm microfluidic sorting chips. The NBSGW (immune-deficient, c-Kit-deficient) mice not needing irradiation to accept human cells were used as […]. In the VAP-1^− group 19000 cells and in the VAP-1−+VAP-1^+/lo group 16250 VAP-1^− cells and 2750 VAP-1^+/lo cells were intravenously injected per animal. […] Samples were run on LSR fortessa and the data was analyzed with FlowJo. Percentage of chimerism [% chimerism=(% test donor-derived cells)×100/((% test donor-derived cells+(% competitor-derived cells))] was calculated as described (Ema et al., “Adult mouse hematopoietic stem cells: purification and single-cell assays”, Nat Protoc 2006 1(6), 2979-2987).

[2] = system: human BM-derived CD34+ cells; test: CFU assay of human BM-derived CD34+ cells with replating; format: cell-based; conditions: LJP-1586 0.5 μM
Description: (§1) The progeny of 900 CD38^−CD34^+ cells collected from 15-day-old in vitro cultures, obtained as described above, were grown in methylcellulose-based medium (H4436, STEMCELL Technologies) containing or lacking LJP-1586. After 14 days, single, multilineage, and mixed colonies were visually scored by microscopy. Cryopreserved human CD34^+ cells from AllCells were thawed, resuspended, and counted according to the manufacturer's protocol. Five hundred thawed human BM CD34^+ cells were cultured in complete methylcellulose-based medium (H4436, STEMCELL Technologies) containning or lacking LJP-1586. The total number of colonies was counted at 14 days after plating. Replating was performed twice by harvesting and dissociating cells under sterile conditions.

[3] = system: human umbilical CB-derived HSCs (CD34+CD38-); test: Liquid culture expansion of umbilical cord blood derived HSCs; format: cell-based
Description: For human umbilical CB cells, an antibody-based EasySep kit was used to enrich CD34^+CB cells, which were subsequently stained with anti-CD38 and anti-CD34 antibodies. CD38^−CD34^+ cells were sorted using a FACSAria Ilu instrument (BD Biosciences) and then cultured in StemSpan SFEM medium II (STEMCELL Technologies) containing human stem cell factor (100 ng/ml), FMS-like tyrosine kinase 3 ligand (100 ng/ml), and thrombopoietin (50 ng/ml) (all from Peprotech). Cells were seeded at a density of 1×10^3 per ml. LJP-1586 was added immediately after plating when indicated. Cultures were maintained for 21 days, and half the medium was replaced by that containing the same cytokines and LJP-1586 on days 5, 8, 12, 15, and 18. CD34^+ cells from human umbilical CB were isolated via a two-step procedure using Ficoll-Plaque gradient centrifugation (Amersham Pharmacia Biotech, Uppsala, Sweden) and an EasySep Human Cord Blood CD34 Positive Selection Kit II (STEMCELL Technologies). For batch and single cell sorting of VAP-1^+ and VAP-1^− cells from CB we used a Sony SH800 cell sorter with class A2 Level II biosafety cabinet using 130 μm microfluidic sorting chips. This sorter applies low shear stress on cells allowing better survival during cell culture. CD34^+ cells were also sorted into VAP-1^+ and VAP-1^−HSCs (Lineage-CD34+CD38). From these, 100 VAP-1+ and VAP-1−HSCs were then cultured in StemSpan SFEM medium II (STEMCELL Technologies) containing human stem cell factor (100 ng/ml), FMS-like tyrosine kinase 3 ligand (100 ng/ml), and thrombopoietin (50 ng/ml) (all from Peprotech). LJP-1586 was added immediately after plating at a concentration of 1 μM. Cultures were maintained for 20 days. Fresh medium containing the same cytokines and LJP-1586 was added on days 5, 8, 10, 12, 15 and 18. The cells were analysed on days 10 and 15 for CD38−CD34+CD45RA−CD90+ expression using LSR Fortessa instrument (BD Biosciences). Alternatively, a VAP-1 inhibitor szTU73 was used in CB cultures at concentrations 1, 5 and 10 micromolar.

[4] = system: ROS in human CD34+ BM cells (CD38-CD34+ gated); test: ROS production (oxidative burst) by DHR-123 and flow cytometry; format: cell-based; conditions: 9-day liquid cultures, PMA activation, bone marrow derived HSCs
Description: Human CD34^+BM cells were liquid cultured for nine days in StemSpan SFEM medium II (STEMCELL Technologies) containing human stem cell factor (100 ng/ml), FMS-like tyrosine kinase 3 ligand (100 ng/ml), and thrombopoietin (50 ng/ml) (all from Peprotech) with or without LJP-1586. After nine days, the cells were stained with anti-CD38 and anti-CD34 antibodies, washed using DMEM, centrifuged and resuspended in 100 μl DMEM. Then, ROS were detected by DHR-123 reagent (Molecular Probes). For this, DHR-123 was diluted in DMSO and kept as a 5 mM stock solution at −20° C. for single use. […] The cells were then incubated for 10 min at 37° C. and followed by activation with Phorbol 12-myristate 13-acetate (PMA) (Sigma-Aldrich. The stock solution of PMA was frozen at 1 mg/ml in DMSO, freshly thawed and diluted 500 times in order to add 12.5 μl to a final concentration of 200 ng/ml. After 20 min at 37° C., the cells were washed with PBS, resuspended and analyzed by flow cytometry. The red DHR123 turns to green after oxidation. CD38^− and CD34^+ positive cells were gated and fluorescence intensity of oxidized DHR-123 was measured from the filter channel 530 nm/30 nm using LSR Fortessa instrument (BD Biosciences) and analyzed by FlowJo software (Tree Star).

[5] = system: CB-derived HSCs; test: CFU assay of CB-derived cells expanded in liquid culture; format: cell-based, human; conditions: after 15 days liquid culture with LJP-1586 (0.5 μM), then CFU assay with LJP-1586
Description: as §1

COc1ccc(C/C(=C/F)CN)cc1.Cl [LJP-1586, Z-3-fluoro-2-(4-methoxybenzyl)allylamine hydrochloride]
mice that accepted the human BM engraftment [1]: 3/3
number of CFUs higher than control cultures after re-plating ([2]; after dissociating and re-plating twice): 92%
number of CFUs higher than control cultures ([2]; first plating, 500 BM CD34+ cells): 33%
number of primitive HSCs (CD34+CD38-CD45RA-CD90+CD49f+) compared to non-treated cultures ([3]; 1 μM, 15 days, average of three donors): 11 times
HSC expansion compared to control cells ([3]; 1 μM, grown for 18 days): more than 31 times
share of HSCs in gate P-3 that were primitive HSCs ([3]; CD34+CD38-CD45RA-CD90+CD49f+): More than 12%
expansion of VAP-1+ HSCs in long term liquid cultures ([3]; day 20, 1 μM): boosted their expansion
expansion of HSCs at other concentrations ([3]; higher or lower concentrations than 1 μM): less efficient
ROS reduction (MFI) compared to control cells [4]: 62%
number of CFUs compared to control cultures [5]: 7.9 times
